We go through 10 compounds from ChEMBL document CHEMBL3045717, “Synthesis and pharmacological properties of some novel pyrazolidine and pyrazole derivatives” (2012).

The structures appear in SMILES notation.

What all share (format): functional
Conditions in all cases: read-out: DIZ

Assay [1] deals with Bacillus subtilis. In words: Antibacterial activity against Bacillus subtilis at 50 ug/ml after 24 hr by agar diffusion cup plate method. On the technique in general: In agar diffusion tests the substance spreads into inoculated agar from a disc or well.
Assay [2] relates to Bacillus subtilis. The assay is described as follows: Antibacterial activity against Bacillus subtilis at 200 ug/ml after 24 hr by agar diffusion cup plate method.
Assay [3] concerns Escherichia coli. The assay is described as follows: Antibacterial activity against Escherichia coli at 50 ug/ml after 24 hr by agar diffusion cup-plate method.
Assay [4] relates to Escherichia coli. The assay is described as follows: Antibacterial activity against Escherichia coli at 200 ug/ml after 24 hr by agar diffusion cup-plate method.
In assay [5] the test system is Escherichia coli. In words: Antibacterial activity against Escherichia coli at 100 ug/ml after 24 hr by agar diffusion cup-plate method.
For assay [6], the system named is Bacillus subtilis. In words: Antibacterial activity against Bacillus subtilis at 100 ug/ml after 24 hr by agar diffusion cup plate method.
The test system of assay [7] is Staphylococcus aureus. In words: Antibacterial activity against Staphylococcus aureus at 200 ug/ml after 24 hr by agar diffusion cup-plate method.
Assay [8] deals with Pseudomonas aeruginosa. The assay is described as follows: Antibacterial activity against Pseudomonas aeruginosa at 200 ug/ml after 24 hr by agar diffusion cup-plate method.
Assay [9] relates to Staphylococcus aureus. The assay is described as follows: Antibacterial activity against Staphylococcus aureus at 100 ug/ml after 24 hr by agar diffusion cup-plate method.
Assay [10] has as its system Staphylococcus aureus. The assay is described as follows: Antibacterial activity against Staphylococcus aureus at 50 ug/ml after 24 hr by agar diffusion cup-plate method.
Assay [11] has as its system Pseudomonas aeruginosa. The assay is described as follows: Antibacterial activity against Pseudomonas aeruginosa at 100 ug/ml after 24 hr by agar diffusion cup-plate method.
The test system of assay [12] is Pseudomonas aeruginosa. The assay is described as follows: Antibacterial activity against Pseudomonas aeruginosa at 50 ug/ml after 24 hr by agar diffusion cup-plate method.
Assay [13] concerns Candida albicans. In words: Antifungal activity against Candida albicans at 200 ug/ml after 48 to 72 hr by agar diffusion cup-plate method.
Assay [14] concerns Candida albicans. The assay is described as follows: Antifungal activity against Candida albicans at 100 ug/ml after 48 to 72 hr by agar diffusion cup-plate method.
The subject of assay [15] is Aspergillus niger. In words: Antifungal activity against Aspergillus niger at 100 ug/ml after 48 to 72 hr by agar diffusion cup-plate method.
Assay [16] relates to Aspergillus niger. In words: Antifungal activity against Aspergillus niger at 200 ug/ml after 48 to 72 hr by agar diffusion cup-plate method.
Assay [17] deals with Aspergillus niger. In words: Antifungal activity against Aspergillus niger at 50 ug/ml after 48 to 72 hr by agar diffusion cup-plate method.
Assay [18] relates to Candida albicans. The assay is described as follows: Antifungal activity against Candida albicans at 50 ug/ml after 48 to 72 hr by agar diffusion cup-plate method.

`CCn1cc(C(=O)O)c(=O)c2cc(F)c(N3CCNCC3)cc21` [NORFLOXACIN]: the zone of inhibition at 50 µg/mL was 31.3 mm in assay [1], 35.4 mm in assay [3], 30.4 mm in [10] and 31.1 mm in assay [12]. Moreover, the zone of inhibition at 200 µg/mL in assay [2] came to 31.3 mm; in assay [4] it was 35.5 mm; in [7], 30.4 mm; in [8], 31.1 mm. The zone of inhibition at 100 µg/mL came to 35.4 mm in assay [5], 31.3 mm in assay [6], 30.4 mm in [9] and 31.1 mm in assay [11].

`O=C1CS/C(=N/c2ccccc2)N1Nc1ccc([N+](=O)[O-])cc1[N+](=O)[O-]`: the zone of inhibition at 50 µg/mL in [1] was determined as 12 mm; in [3], 18.2 mm; in assay [10] it was 16.2 mm; in assay [17] it was 10.2 mm; in assay [12], 10.2 mm; in [18] it was 11.1 mm. The zone of inhibition at 200 µg/mL in [2] came out at 26.4 mm; in [13], 24.2 mm; in [4] it was 30.1 mm; in [7], 30.4 mm; in [8], 12 mm; in [16], 16.6 mm. In addition, the zone of inhibition at 100 µg/mL in assay [5] is 26.1 mm; in [6] it was 20.8 mm; in assay [14], 18.4 mm; in assay [9] it was 22.2 mm; in assay [15], 14.5 mm; in assay [11], 10.3 mm.

As for `O=C1CC(=O)N(c2ccc([N+](=O)[O-])cc2[N+](=O)[O-])N1`, the zone of inhibition at 50 µg/mL in assay [1] was 10.2 mm; in assay [3], 16.2 mm; in [10] it was 8.4 mm; in assay [17], 10.1 mm; in [12], 12.1 mm; in assay [18], 6.2 mm. Besides, the zone of inhibition at 200 µg/mL in assay [2] came out at 16 mm; in assay [13] it was 10.2 mm; in assay [4], 20.2 mm; in [7] it was 18.1 mm; in [8], 16.1 mm; in assay [16] it was 14.1 mm. Further, the zone of inhibition at 100 µg/mL in assay [5] amounted to 18.1 mm; in [6] it was 12 mm; in assay [14] it was 10.1 mm; in [9] it was 12 mm; in assay [15], 12.2 mm; in assay [11], 13.2 mm.

In the case of `CC(=O)N1C(=O)CC(=O)N1c1ccc([N+](=O)[O-])cc1[N+](=O)[O-]`, the zone of inhibition at 50 µg/mL in assay [1] turned out to be 10.2 mm; in assay [3], 13.2 mm; in assay [10], 10 mm; in [17], 12.2 mm; in [12], 18.2 mm; in assay [18], 13.2 mm. Also, the zone of inhibition at 200 µg/mL in assay [2] came out at 25.1 mm; in assay [13], 24.2 mm; in assay [4], 30.6 mm; in [7] it was 26.1 mm; in [8], 28 mm; in assay [16] it was 24 mm. Moreover, the zone of inhibition at 100 µg/mL in [5] came to 15.2 mm; in [6], 18.9 mm; in assay [14] it was 18.2 mm; in assay [9] it was 22 mm; in [15], 16.8 mm; in assay [11] it was 22.8 mm.

On to `O=C1CC(CCl)=NN1c1ccc([N+](=O)[O-])cc1[N+](=O)[O-]`, for which the zone of inhibition at 50 µg/mL in assay [1] was found to be 12.2 mm; in assay [3], 14.2 mm; in [10], 15 mm; in assay [17], 14 mm; in assay [12] it was 14 mm; in assay [18] it was 14.2 mm. Also, the zone of inhibition at 200 µg/mL in [2] was determined as 28 mm; in [13] it was 26.4 mm; in assay [4] it was 30.4 mm; in assay [7], 28.1 mm; in assay [8] it was 28.6 mm; in [16] it was 26.6 mm. Also, the zone of inhibition at 100 µg/mL was found to be 23 mm in assay [5]; 20.1 mm in assay [6]; 23 mm in [14]; 20 mm in assay [9]; 22.1 mm in assay [15]; 22.1 mm in assay [11].

As to `O=[N+]([O-])c1ccc(NNC(=S)Nc2ccccc2)c([N+](=O)[O-])c1`, the zone of inhibition at 50 µg/mL came out at 10.2 mm in [1]; 10.2 mm in [3]; 10 mm in [10]; 10 mm in [17]; 12 mm in [12]; 11.5 mm in [18]. Moreover, the zone of inhibition at 200 µg/mL in assay [2] stood at 18.4 mm; in assay [13], 18.4 mm; in [4], 18.6 mm; in [7], 18 mm; in [8] it was 20.2 mm; in assay [16] it was 16.2 mm. Moreover, the zone of inhibition at 100 µg/mL in assay [5] is 14.1 mm; in [6], 14.1 mm; in assay [14] it was 14.1 mm; in assay [9], 14 mm; in [15] it was 14.2 mm; in [11], 14.2 mm.

In the case of `NC1=NN(c2ccc([N+](=O)[O-])cc2[N+](=O)[O-])C(=O)C1`, the zone of inhibition at 50 µg/mL in assay [1] was 10.4 mm; in assay [3], 12.3 mm; in assay [10], 14 mm; in assay [17] it was 8.4 mm; in assay [12], 8.4 mm; in [18] it was 12.3 mm. In addition, the zone of inhibition at 200 µg/mL in assay [2] is 12 mm; in [13] it was 20.8 mm; in assay [4], 20.6 mm; in assay [7], 26 mm; in assay [8], 16.3 mm; in [16], 14.3 mm. Moreover, the zone of inhibition at 100 µg/mL came to 16 mm in assay [5]; 8.1 mm in assay [6]; 14 mm in [14]; 20 mm in assay [9]; 10.1 mm in assay [15]; 12.1 mm in [11].

For `Clc1ccccc1C(c1ccccc1)(c1ccccc1)n1ccnc1` [CLOTRIMAZOLE], the zone of inhibition at 200 µg/mL in assay [13] and in assay [16] was 28.4 mm throughout. For the same compound, the zone of inhibition at 100 µg/mL in assay [14] and in assay [15] was 28.4 mm in each case. Also, the zone of inhibition at 50 µg/mL in [17] and in assay [18] was 28.4 mm throughout.

With `Cc1cc(C)n(-c2ccc([N+](=O)[O-])cc2[N+](=O)[O-])n1`, the zone of inhibition at 50 µg/mL in assay [1] was 10.4 mm; in assay [3] it was 14.3 mm; in assay [10], 14 mm; in [17], 10.2 mm; in assay [12], 10.2 mm; in assay [18], 14.3 mm. The zone of inhibition at 200 µg/mL in assay [2] was determined as 22.9 mm; in [13], 24.5 mm; in [4] it was 28.5 mm; in assay [7], 24 mm; in [8], 25 mm; in [16], 25 mm. Moreover, the zone of inhibition at 100 µg/mL in assay [5] worked out at 23 mm; in [6], 18.5 mm; in assay [14], 20 mm; in [9], 23 mm; in assay [15] it was 18.6 mm; in [11], 18.6 mm.

With `CC1=NN(c2ccc([N+](=O)[O-])cc2[N+](=O)[O-])C(=O)C1`, the zone of inhibition at 50 µg/mL in assay [1] was 10.2 mm; in assay [3], 12 mm; in [10], 14.2 mm; in [17], 12.2 mm; in [12], 12.2 mm; in [18], 10 mm. Further, the zone of inhibition at 200 µg/mL in assay [2] was found to be 12 mm; in assay [13], 20.4 mm; in assay [4], 20.4 mm; in assay [7], 24.1 mm; in [8], 22 mm; in assay [16], 18 mm. Besides, the zone of inhibition at 100 µg/mL in [5] turned out to be 16 mm; in [6], 10.1 mm; in assay [14], 14 mm; in [9], 18 mm; in assay [15], 14 mm; in assay [11] it was 16 mm.
